Experiment: xn = mol fraction of the nth substance listed
Conditions: Liquid, Vibrating tube method, x2 = 0

c1ccccc1 [benzene] + CCCCCCCC
mass density [kg/m3]
Conditions	298.15 K	308.15 K	318.15 K	328.15 K
100 kPa	873.5	862.9	852.3	841.5
2130 kPa	875.1	864.7	854.2	843.6
4150 kPa	876.7	866.4	856.1	845.6
6180 kPa	878.4	868.2	857.9	847.5
8210 kPa	879.9	869.9	859.7	849.5
10230 kPa	881.5	871.6	861.5	851.3
11250 kPa	882.3	872.4	862.4	852.3
12260 kPa	883.1	873.2	863.2	853.2
14290 kPa	884.6	874.8	865	855
16310 kPa	886.1	876.4	866.6	856.8
18340 kPa	887.6	878	868.3	858.6
20370 kPa	889.1	879.5	869.9	860.3
22390 kPa	890.5	881.1	871.6	862
24420 kPa	892	882.6	873.2	863.7
26450 kPa	893.4	884	874.7	865.3
28470 kPa	894.7	885.5	876.2	866.9
29490 kPa	895.4	886.2	877	867.8
30500 kPa	896.1	886.9	877.8	868.6
32530 kPa	897.5	888.4	879.2	870.1
34550 kPa	898.8	889.7	880.7	871.7
36580 kPa	900.1	891.1	882.1	873.1
38600 kPa	901.4	892.5	883.6	874.7
39620 kPa	902	893.2	884.3	875.4

Reference: the NIST ThermoML archive (doi:10.1016/j.jct.2007.11.009)
